# Legend:
# [1] = biological target: Histone acetyltransferase KAT2B (Homo sapiens) (UniProt Q92831); assay: Binding affinity to PCAF (unknown origin) assessed as change in melting temperature at 100 uM incubated for 30 mins by thermal shift assay
# [2] = biological target: T1, Bromodomain-containing protein 2 (Homo sapiens, UniProt P25440); assay: Binding affinity to His6-fused BRD2 BD2 (unknown origin) assessed as change in melting temperature at 100 uM incubated for 30 mins by thermal shift assay
# [3] = biological target: T2, Bromodomain testis-specific protein (Homo sapiens, UniProt Q58F21); assay: Binding affinity to His6-fused BRDT BD1 (unknown origin) assessed as change in melting temperature at 100 uM incubated for 30 mins by thermal shift assay
# [4] = biological target: SWI/SNF-related matrix-associated actin-dependent regulator of chromatin subfamily A member 4 (Homo sapiens) (UniProt P51532); assay: Binding affinity to SMARCA4 (unknown origin) assessed as change in melting temperature at 100 uM incubated for 30 mins by thermal shift assay
# [5] = biological target: PH-interacting protein (Homo sapiens) (UniProt Q8WWQ0); assay: Binding affinity to PHIP-2 (unknown origin) assessed as change in melting temperature at 100 uM incubated for 30 mins by thermal shift assay
# [6] = biological target: SWI/SNF-related matrix-associated actin-dependent regulator of chromatin subfamily A member 2 (Homo sapiens) (UniProt P51531); assay: Binding affinity to SMARCA2A (unknown origin) assessed as change in melting temperature at 100 uM incubated for 30 mins by thermal shift assay
# [7] = biological target: T2, Bromodomain testis-specific protein; assay: Binding affinity to His6-fused BRDT BD2 (unknown origin) assessed as change in melting temperature at 100 uM incubated for 30 mins by thermal shift assay
# [8] = biological target: T3, Bromodomain-containing protein 4 (Homo sapiens, UniProt O60885); assay: Inhibition of C-terminal His6-tagged BRD4 BD1 (unknown origin) using H-YSGRGK(Ac)GGK(Ac)GLGK(Ac)-GGAK(Ac)RHRK-Biotin-OH as substrate incubated for 1 hrs by HTRF assay
# [9] = biological target: CREB-binding protein (Homo sapiens) (UniProt Q92793); assay: Binding affinity to CBP (unknown origin) assessed as change in melting temperature at 100 uM incubated for 30 mins by thermal shift assay
# [10] = biological target: T4, Bromodomain-containing protein 3 (Homo sapiens, UniProt Q15059); assay: Binding affinity to His6-fused BRD3 BD2 (unknown origin) assessed as change in melting temperature at 100 uM incubated for 30 mins by thermal shift assay
# Target sequence in this assay (Q15059 2-726 limits assumed): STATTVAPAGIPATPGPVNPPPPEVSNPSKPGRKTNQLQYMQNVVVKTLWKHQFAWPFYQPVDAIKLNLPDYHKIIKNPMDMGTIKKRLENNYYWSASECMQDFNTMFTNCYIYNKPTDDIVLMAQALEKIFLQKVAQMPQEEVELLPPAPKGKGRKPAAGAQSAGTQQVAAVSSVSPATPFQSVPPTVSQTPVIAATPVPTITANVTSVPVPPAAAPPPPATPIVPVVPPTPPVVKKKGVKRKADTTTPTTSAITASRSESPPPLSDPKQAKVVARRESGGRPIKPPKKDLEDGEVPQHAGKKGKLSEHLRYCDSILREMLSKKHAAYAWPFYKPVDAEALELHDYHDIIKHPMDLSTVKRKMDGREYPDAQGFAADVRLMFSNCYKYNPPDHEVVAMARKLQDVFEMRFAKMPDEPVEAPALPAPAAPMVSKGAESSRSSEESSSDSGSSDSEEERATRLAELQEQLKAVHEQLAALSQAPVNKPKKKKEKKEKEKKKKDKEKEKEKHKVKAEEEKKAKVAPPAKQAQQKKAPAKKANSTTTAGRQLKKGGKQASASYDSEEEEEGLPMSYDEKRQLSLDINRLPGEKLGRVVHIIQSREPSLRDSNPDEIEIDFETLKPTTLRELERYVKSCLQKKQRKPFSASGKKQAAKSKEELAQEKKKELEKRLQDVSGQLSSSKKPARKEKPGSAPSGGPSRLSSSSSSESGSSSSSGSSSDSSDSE
# [11] = biological target: T1, Bromodomain-containing protein 2; assay: Binding affinity to His6-fused BRD2 BD1 (unknown origin) assessed as change in melting temperature at 100 uM incubated for 30 mins by thermal shift assay
# [12] = biological target: T5, Transcription intermediary factor 1-alpha (Homo sapiens) (UniProt O15164); assay: Binding affinity to TRIM24 (unknown origin) assessed as change in melting temperature at 100 uM incubated for 30 mins by thermal shift assay
# T5 sequence (whole entry): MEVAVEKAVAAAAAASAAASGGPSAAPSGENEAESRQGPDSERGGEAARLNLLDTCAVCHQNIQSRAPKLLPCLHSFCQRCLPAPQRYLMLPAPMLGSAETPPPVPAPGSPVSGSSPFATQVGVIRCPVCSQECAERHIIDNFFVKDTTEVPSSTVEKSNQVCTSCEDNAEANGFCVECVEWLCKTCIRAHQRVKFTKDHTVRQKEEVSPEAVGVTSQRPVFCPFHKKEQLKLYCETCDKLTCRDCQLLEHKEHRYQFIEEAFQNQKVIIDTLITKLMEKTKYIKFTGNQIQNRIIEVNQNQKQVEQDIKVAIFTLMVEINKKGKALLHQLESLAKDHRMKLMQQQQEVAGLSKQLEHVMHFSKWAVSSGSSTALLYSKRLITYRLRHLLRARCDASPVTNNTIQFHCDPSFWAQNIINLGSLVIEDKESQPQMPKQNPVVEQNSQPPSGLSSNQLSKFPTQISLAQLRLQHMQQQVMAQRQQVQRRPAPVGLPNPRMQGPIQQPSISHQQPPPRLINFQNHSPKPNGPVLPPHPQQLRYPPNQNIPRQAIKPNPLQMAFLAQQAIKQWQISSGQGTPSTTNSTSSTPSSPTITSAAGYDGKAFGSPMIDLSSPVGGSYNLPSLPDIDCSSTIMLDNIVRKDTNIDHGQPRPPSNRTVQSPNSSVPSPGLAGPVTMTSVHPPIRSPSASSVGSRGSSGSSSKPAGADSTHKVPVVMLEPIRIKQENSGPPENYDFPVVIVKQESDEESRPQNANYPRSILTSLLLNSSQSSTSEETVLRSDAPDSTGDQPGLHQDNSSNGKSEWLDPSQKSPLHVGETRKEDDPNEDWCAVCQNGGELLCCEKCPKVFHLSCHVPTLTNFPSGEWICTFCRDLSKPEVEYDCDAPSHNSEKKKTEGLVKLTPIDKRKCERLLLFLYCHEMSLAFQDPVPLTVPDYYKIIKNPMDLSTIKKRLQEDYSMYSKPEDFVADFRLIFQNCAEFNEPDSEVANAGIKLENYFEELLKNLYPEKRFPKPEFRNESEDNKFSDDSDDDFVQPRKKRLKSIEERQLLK
# [13] = biological target: SWI/SNF-related matrix-associated actin-dependent regulator of chromatin subfamily A member 2 (Homo sapiens) (UniProt P51531); assay: Binding affinity to SMARCA2B (unknown origin) assessed as change in melting temperature at 100 uM incubated for 30 mins by thermal shift assay
# [14] = biological target: T3, Bromodomain-containing protein 4; assay: Inhibition of C-terminal His6-tagged BRD4 BD2 (unknown origin) using H-YSGRGK(Ac)GGK(Ac)GLGK(Ac)-GGAK(Ac)RHRK-Biotin-OH as substrate incubated for 1 hrs by HTRF assay
# Homo sapiens = species on record: Homo sapiens; assay: Selectivity index, ratio of IC50 for BRD4 BD1 (unknown origin) to IC50 of BRD4 BD2 (unknown origin)
# [15] = biological target: Transcription initiation factor TFIID subunit 1 (Homo sapiens) (UniProt P21675); assay: Binding affinity to TAF1 BD1(unknown origin) assessed as change in melting temperature at 100 uM incubated for 30 mins by thermal shift assay
# Transcription initiation factor TFIID subunit 1 (Homo sapiens), sequence (P21675 whole entry, the tested form may be a part): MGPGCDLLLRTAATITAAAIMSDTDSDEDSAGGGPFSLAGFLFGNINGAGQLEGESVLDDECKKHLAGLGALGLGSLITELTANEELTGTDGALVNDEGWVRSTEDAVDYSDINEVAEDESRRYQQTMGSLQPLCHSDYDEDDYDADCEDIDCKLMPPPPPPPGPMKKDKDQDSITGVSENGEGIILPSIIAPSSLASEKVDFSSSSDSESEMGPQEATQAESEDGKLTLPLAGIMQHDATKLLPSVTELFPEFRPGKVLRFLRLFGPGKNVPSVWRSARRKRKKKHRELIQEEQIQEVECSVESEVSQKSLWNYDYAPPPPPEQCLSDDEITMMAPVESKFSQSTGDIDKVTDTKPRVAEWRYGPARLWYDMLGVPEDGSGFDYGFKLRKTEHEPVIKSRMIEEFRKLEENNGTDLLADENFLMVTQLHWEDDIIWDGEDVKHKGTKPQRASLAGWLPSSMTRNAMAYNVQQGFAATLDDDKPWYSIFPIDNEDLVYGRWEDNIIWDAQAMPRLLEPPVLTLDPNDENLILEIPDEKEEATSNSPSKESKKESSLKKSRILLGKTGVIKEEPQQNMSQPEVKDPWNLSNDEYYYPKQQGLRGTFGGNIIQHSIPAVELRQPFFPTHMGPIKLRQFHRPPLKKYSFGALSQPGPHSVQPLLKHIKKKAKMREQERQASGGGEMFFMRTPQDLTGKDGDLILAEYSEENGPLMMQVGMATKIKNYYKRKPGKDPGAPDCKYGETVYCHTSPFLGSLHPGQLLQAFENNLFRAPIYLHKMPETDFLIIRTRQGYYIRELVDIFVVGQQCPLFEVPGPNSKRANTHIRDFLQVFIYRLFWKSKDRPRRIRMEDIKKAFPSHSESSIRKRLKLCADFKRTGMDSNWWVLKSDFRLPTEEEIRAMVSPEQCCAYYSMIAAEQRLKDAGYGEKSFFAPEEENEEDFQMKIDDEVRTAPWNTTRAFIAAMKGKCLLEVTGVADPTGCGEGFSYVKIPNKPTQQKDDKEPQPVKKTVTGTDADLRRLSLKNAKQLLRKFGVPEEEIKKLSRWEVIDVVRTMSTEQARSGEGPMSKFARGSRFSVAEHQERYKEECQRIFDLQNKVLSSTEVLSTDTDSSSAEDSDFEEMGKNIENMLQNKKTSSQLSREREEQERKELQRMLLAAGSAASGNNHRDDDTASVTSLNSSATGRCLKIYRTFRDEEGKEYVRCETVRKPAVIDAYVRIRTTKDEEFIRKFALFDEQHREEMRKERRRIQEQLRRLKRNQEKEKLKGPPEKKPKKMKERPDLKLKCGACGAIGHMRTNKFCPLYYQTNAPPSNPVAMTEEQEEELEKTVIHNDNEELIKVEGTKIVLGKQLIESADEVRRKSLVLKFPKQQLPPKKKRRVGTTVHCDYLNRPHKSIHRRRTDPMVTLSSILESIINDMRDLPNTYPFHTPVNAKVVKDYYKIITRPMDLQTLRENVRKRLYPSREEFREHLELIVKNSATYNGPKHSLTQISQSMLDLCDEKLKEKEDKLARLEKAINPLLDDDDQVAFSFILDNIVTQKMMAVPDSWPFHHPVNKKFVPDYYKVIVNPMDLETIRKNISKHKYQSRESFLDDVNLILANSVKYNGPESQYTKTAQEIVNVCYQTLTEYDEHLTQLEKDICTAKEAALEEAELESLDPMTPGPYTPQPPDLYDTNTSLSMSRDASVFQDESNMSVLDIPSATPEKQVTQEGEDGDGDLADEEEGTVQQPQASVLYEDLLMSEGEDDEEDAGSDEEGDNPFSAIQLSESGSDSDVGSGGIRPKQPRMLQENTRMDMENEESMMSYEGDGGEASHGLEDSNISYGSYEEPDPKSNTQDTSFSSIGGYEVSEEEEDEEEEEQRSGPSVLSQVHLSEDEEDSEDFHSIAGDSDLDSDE
# [16] = biological target: Bromodomain adjacent to zinc finger domain protein 2B (Homo sapiens) (UniProt Q9UIF8); assay: Binding affinity to BAZ2B (unknown origin) assessed as change in melting temperature at 100 uM incubated for 30 mins by thermal shift assay
# Bromodomain adjacent to zinc finger domain protein 2B (Homo sapiens), sequence (Q9UIF8 whole entry, the tested form may be a part): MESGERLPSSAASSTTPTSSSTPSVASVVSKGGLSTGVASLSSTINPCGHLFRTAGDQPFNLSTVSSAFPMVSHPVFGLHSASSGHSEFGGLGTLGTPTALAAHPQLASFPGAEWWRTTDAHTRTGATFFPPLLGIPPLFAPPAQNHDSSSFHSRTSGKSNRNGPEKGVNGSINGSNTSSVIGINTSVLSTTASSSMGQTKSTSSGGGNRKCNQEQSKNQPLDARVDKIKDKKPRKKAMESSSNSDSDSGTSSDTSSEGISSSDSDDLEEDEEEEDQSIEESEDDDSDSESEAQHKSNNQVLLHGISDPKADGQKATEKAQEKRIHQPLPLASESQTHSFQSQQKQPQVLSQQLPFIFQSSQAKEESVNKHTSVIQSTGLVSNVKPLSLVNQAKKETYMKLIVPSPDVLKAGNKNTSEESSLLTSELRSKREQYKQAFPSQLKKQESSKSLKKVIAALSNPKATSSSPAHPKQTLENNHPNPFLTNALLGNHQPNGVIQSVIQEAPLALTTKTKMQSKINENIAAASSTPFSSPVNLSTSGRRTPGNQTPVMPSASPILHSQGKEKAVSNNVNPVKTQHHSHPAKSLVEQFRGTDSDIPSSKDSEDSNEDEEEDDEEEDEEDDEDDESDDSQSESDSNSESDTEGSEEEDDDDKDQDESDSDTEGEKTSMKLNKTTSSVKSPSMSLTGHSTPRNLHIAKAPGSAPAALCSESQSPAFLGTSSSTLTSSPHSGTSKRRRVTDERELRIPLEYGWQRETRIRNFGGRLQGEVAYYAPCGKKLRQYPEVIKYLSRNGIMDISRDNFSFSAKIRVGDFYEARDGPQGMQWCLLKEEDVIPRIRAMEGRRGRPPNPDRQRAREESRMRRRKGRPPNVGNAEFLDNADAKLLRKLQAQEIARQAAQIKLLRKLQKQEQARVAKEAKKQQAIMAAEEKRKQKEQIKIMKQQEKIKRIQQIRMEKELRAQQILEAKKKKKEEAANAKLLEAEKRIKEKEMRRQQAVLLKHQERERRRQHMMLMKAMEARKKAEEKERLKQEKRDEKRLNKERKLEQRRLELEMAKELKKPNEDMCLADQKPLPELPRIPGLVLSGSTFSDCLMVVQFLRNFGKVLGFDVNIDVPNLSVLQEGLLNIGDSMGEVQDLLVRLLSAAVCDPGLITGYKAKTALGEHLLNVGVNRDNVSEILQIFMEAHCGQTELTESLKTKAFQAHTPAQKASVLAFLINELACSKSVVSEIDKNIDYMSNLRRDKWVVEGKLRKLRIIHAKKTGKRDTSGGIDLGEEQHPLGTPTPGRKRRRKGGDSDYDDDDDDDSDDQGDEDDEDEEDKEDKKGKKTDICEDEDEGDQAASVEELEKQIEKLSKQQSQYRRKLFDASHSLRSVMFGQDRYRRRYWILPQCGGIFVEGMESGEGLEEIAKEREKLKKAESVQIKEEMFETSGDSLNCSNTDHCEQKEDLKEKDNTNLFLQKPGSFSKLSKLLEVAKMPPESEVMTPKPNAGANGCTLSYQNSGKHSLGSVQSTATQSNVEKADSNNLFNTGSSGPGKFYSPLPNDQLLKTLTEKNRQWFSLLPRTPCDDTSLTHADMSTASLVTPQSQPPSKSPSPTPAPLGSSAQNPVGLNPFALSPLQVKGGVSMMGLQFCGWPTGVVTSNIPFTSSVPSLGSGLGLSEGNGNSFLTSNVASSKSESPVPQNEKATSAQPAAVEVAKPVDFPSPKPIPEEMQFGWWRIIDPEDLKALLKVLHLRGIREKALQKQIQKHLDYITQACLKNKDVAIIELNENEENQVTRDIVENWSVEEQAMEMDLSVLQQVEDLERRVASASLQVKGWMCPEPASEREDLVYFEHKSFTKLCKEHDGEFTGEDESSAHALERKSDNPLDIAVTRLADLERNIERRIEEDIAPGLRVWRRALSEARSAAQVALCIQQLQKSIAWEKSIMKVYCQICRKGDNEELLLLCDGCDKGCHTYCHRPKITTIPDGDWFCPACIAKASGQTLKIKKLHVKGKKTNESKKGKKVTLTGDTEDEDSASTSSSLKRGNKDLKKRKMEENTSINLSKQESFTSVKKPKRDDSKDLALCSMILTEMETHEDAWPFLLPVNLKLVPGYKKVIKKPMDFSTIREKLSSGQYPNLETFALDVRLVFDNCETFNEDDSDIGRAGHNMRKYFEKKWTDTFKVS
# [17] = biological target: Chromatin remodeling regulator CECR2 (Homo sapiens) (UniProt Q9BXF3); assay: Binding affinity to CECR2 (unknown origin) assessed as change in melting temperature at 100 uM incubated for 30 mins by thermal shift assay
# [18] = biological target: T2, Bromodomain testis-specific protein; assay: Binding affinity to His6-fused BRDT BD2 (unknown origin) assessed as dissociation constant in PBS incubated for 1 hrs by biolayer interferometry analysis
# [19] = biological target: T1, Bromodomain-containing protein 2; assay: Binding affinity to His6-fused BRD2 BD1 (unknown origin) assessed as dissociation constant in PBS incubated for 1 hrs by biolayer interferometry analysis
# [20] = biological target: T4, Bromodomain-containing protein 3; assay: Binding affinity to His6-fused human BRD3 BD1 assessed as dissociation constant in PBS incubated for 1 hrs by biolayer interferometry analysis
SMILES,ΔTm [1] [°C],ΔTm [2] [°C],ΔTm [3] [°C],ΔTm [4] [°C],ΔTm [5] [°C],ΔTm [6] [°C],ΔTm [7] [°C],IC50 [8] [nM],ΔTm [9] [°C],ΔTm [10] [°C],ΔTm [11] [°C],ΔTm [12] [°C],ΔTm [13] [°C],IC50 [14] [nM],Ratio IC50 (Homo sapiens),ΔTm [15] [°C],ΔTm [16] [°C],ΔTm [17] [°C],Kd [18] [nM],Kd [19] [nM],further results
Cc1cc(F)cc(C)c1Oc1ccc(C(C)(C)O)cc1-c1cn(C)c(=O)c2cc(-c3cnc(C4CC4)[nH]3)oc12,-0.5,11.2,2.75,0.25,-2,0.75,15,162,1,13,3.5,-1.5,-0.25,0.59,275,-1.25,-0.75,0,,,
Cc1cc(F)cc(C)c1Oc1ccc(C(C)(C)O)cc1-c1cn(C)c(=O)c2cc(-c3cnc(C4CCC4)[nH]3)oc12,-1,11.2,3,-0.5,-2,0.5,14.5,153,0.5,12,3,-1.25,0.75,0.52,294,-1,-1,-0.25,,,
Cc1cc(F)cc(C)c1Oc1ccc(C(C)(C)O)cc1-c1cn(C)c(=O)c2cc(-c3cnc(C4CCCC4)[nH]3)oc12,0,10.2,2,0,-2,1,13.2,,0.75,11.5,2,-1,1,,,-1,-0.25,0,38.8,1200,Kd [20]: 1330 nM
Cc1cc(F)cc(C)c1Oc1ccc(C(C)(C)O)cc1-c1cn(C)c(=O)c2cc(-c3cnc(C4CCCCC4)[nH]3)oc12,0.25,8,2,0,-2,1,11,326,0.5,9,1,-1,1,1.44,226,-1.25,-1,-0.25,195,1070,Kd [20]: 9780 nM

# — ChEMBL document CHEMBL5154816, “Structure-Based Discovery and Optimization of Furo[3,2-c]pyridin-4(5H)-one Derivatives as Potent and Second Bromodomain (BD2)-Selective Bromo and Extra Terminal Domain (BET) Inhibitors” (J Med Chem, 2022)
